The source made the active and inactive calls.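 The calls were made as follows: active = no phosphorylated p38 MAPK band on western blot after an ER stress trigger, matching the untreated control; inactive = the rest.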

For eleven compounds, outcome results are on record in PubChem BioAssay AID1358 (Sanford-Burnham Center for Chemical Genomics, 2008).

In this test the test system is CSM14.1 cells, thapsigargin, phospho-p38 Western blot. Kind of test: p38 MAPK activation blockade under ER stress – CSM14.1 cells, thapsigargin, Western blot, mechanism study for ER stress cell death project, late-stage follow-up (AID 1358).
With `COc1ccc(C2CC(=O)C3=C(C2)Nc2ccccc2NC3c2ccccc2C(F)(F)F)cc1OC` (stereo unspecified), the result was active. In the case of `COc1ccc(C2CC(=O)C3=C(C2)Nc2ccccc2NC3c2cccc(C(F)(F)F)c2)cc1OC` (stereo unspecified), the outcome was active. For `CCOc1cc(C2Nc3ccccc3NC3=C2C(=O)CC(c2ccc(OC)cc2)C3)cc(Cl)c1O` (stereo unspecified), the result was active. Next, `CC1(C)CC(=O)C2=C(C1)Nc1ccccc1NC2c1ccc(-c2ccccc2)cc1` (stereo unspecified): “active”; `COc1ccc(C2CC(=O)C3=C(C2)Nc2ccccc2NC3c2cccc(Br)c2)cc1OC` (stereo unspecified): “active”. Take `CSc1ccc(C2Nc3ccccc3NC3=C2C(=O)CC(c2ccccc2)C3)cc1` (stereo unspecified): the result was active. Regarding `CCOc1cccc(C2Nc3ccccc3NC3=C2C(=O)CC(c2ccc(OC)cc2)C3)c1` (stereo unspecified), the result was active.

Turning to `COc1ccc(C2CC(=O)C3=C(C2)Nc2ccccc2NC3c2cccc(Oc3ccccc3)c2)cc1OC` (stereo unspecified), the outcome was active. Next, `O=C1CC(c2ccccc2)CC2=C1C(c1c(F)cccc1Cl)Nc1ccccc1N2` (stereo unspecified): “active”.

Take `COc1ccc(C2CC(=O)C3=C(C2)Nc2ccccc2NC3c2cc(C)ccc2C)cc1` (stereo unspecified): the result was active. For the compound `CCCOc1ccc(C2Nc3ccccc3NC3=C2C(=O)CC(c2ccc(OC)c(OC)c2)C3)cc1` (stereo unspecified), the result was active.
